pEC50: −log10 of the molar value. Like-named read-outs stand apart in the source and are kept apart here.
Tests used:
Insulin Receptor = biological target: T1, Insulin Receptor (Sus scrofa, UniProt F1SCL0); assay: Insulin Receptor Binding Assay, minipig; settings: Table 7, control molecules, minipig IR
T1 construct: expressed in transfected cells
Experimental: Method 1 IR binding assay is a whole cell binding method using CHO cells overexpressing human IR(B). The cells are grown in F12 media containing 10% FBS and antibiotics (G418, Penicillin/Strepavidin), plated at 40,000 cells/well in a 96-well tissue culture plate for at least eight hours. The cells are then serum starved by switching to DMEM media containing 1% BSA (insulin-free) overnight. The cells are washed twice with chilled DMEM media containing 1% BSA (insulin-free) followed by the addition of conjugate at appropriate concentration in 90 μL of the same media. The cells are incubated on ice for 60 minutes.
Method 2 IR binding assay is run in a scintillation proximity assay (SPA) in 384-well format using cell membranes prepared from CHO cells overexpressing human IR(B) grown in F12 media containing 10% FBS and antibiotics (G418, Penicillin/Strepavidin). Cell membranes are prepared in 50 mM Tris buffer, pH 7.8 containing 5 mM MgCl2. The assay buffer contains 50 mM Tris buffer, pH 7.5, 150 mM NaCl, 1 mM CaCl2, 5 mM MgCl2, 0.1% BSA and protease inhibitors (Complete-Mini-Roche). Cell membranes are added to WGA PVT PEI SPA beads (5 mg/mL final concentration) followed by addition of conjugate at appropriate concentrations.

human GCGR = biological target: T2, human GCGR (Homo sapiens, UniProt P47871); assay: cAMP activity assay, cells expressing human GCGR; assay type: cell-based; settings: for GCGR/GLP1R ratio: Table 5, ratio of hGCGR EC50 to hGLP1R EC50;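 as to all read-outs here: cAMP production read by luminescence after one hour of peptide exposure at room temperature, EC50 from logistic curve fit, native glucagon and GLP-1 as control peptides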
T2 construct: expressed in transfected cells; grown with Blasticidin and Hygromycin
T2 sequence (P47871 26-477): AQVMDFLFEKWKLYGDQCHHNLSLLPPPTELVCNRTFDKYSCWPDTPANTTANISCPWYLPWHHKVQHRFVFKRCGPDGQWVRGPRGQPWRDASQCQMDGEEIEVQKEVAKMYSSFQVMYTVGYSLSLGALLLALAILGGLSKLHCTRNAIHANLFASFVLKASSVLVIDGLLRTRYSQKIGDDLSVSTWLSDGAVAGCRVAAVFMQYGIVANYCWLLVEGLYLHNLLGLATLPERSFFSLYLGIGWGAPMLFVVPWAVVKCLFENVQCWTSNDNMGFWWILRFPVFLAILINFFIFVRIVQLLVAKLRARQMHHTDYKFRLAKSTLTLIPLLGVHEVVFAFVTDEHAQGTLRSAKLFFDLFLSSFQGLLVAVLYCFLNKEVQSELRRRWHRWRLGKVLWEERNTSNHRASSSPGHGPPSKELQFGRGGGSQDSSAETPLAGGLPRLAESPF
Experimental: (§1) Activity of the incretin peptides or the conjugates at the Glucagon receptor (GCGR) and GLP-1 receptor (GLP1R) may be measured in a cAMP activity assay as follows.
(§2) Peptides are dissolved in 100% DMSO and serially diluted to generate 10 point titrations. The peptide solutions are then transferred into 384-well assay plates (150 nL/well). Assay ready frozen cells expressing human GLP1R or human GCGR are suspended in growth media consisting of DMEM medium (GIBCO), 10% FBS (GIBCO), 1×NEAA(GIBCO), 1×P/S (GIBCO), 10 μg/mL Blasticidin (GIBCO) and 200 μg/mL Hygromycin (GIBCO). […] The cell suspensions (15 μL) are then added to the assay plates containing the peptide solutions (30,000 cells/well for human GCGR; 10,000 cells/well for human GLP1R). The cells are incubated for one hour at room temperature in the dark.
(§3) Production of cAMP may be determined using HitHunterr cAMPXS kits (DiscoverX) following the manufacturer's protocol. The plates are incubated for overnight at room temperature in the dark. Luminescence may be measured using an EnVision Multilabel plate reader (Perkin Elmer). Native GLP-1 and Glucagon (Bachem) may be used as control peptides. EC50 values may be calculated using uses a 4 parameter logistic fit based on the Levenberg-Marquardt algorithm.

human GLP1R = human GLP1R (Homo sapiens, UniProt P43220); assay: cAMP activity assay, cells expressing human GLP1R; assay type: cell-based
Sequence of human GLP1R (P43220 24-463): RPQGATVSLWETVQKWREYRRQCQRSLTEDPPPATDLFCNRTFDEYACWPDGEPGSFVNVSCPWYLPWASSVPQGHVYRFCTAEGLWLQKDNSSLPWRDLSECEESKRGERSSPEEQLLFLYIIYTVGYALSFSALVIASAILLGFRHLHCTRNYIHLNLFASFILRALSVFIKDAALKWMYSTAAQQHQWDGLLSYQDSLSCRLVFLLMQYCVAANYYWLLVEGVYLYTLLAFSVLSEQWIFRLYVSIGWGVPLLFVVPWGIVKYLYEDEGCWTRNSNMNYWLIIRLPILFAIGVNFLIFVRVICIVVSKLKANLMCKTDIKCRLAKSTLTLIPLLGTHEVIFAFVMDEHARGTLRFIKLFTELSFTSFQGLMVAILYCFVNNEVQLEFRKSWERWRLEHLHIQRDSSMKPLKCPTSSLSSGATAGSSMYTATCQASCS
Experimental: as §1, §2, §3

minipig IR = biological target: T3, minipig IR (Sus scrofa, UniProt F1SCL0); assay: Insulin Receptor Phosphorylation (pAkt) Assay, CHO cells overexpressing minipig IR; assay type: cell-based; settings: Table 7, control molecules, read-out: Insulin Receptor pAK Assay EC50 Minipig
T3 construct: expressed in transfected cells; host or cells: CHO cells (G418 selection)
T3 sequence (F1SCL0 28-1382): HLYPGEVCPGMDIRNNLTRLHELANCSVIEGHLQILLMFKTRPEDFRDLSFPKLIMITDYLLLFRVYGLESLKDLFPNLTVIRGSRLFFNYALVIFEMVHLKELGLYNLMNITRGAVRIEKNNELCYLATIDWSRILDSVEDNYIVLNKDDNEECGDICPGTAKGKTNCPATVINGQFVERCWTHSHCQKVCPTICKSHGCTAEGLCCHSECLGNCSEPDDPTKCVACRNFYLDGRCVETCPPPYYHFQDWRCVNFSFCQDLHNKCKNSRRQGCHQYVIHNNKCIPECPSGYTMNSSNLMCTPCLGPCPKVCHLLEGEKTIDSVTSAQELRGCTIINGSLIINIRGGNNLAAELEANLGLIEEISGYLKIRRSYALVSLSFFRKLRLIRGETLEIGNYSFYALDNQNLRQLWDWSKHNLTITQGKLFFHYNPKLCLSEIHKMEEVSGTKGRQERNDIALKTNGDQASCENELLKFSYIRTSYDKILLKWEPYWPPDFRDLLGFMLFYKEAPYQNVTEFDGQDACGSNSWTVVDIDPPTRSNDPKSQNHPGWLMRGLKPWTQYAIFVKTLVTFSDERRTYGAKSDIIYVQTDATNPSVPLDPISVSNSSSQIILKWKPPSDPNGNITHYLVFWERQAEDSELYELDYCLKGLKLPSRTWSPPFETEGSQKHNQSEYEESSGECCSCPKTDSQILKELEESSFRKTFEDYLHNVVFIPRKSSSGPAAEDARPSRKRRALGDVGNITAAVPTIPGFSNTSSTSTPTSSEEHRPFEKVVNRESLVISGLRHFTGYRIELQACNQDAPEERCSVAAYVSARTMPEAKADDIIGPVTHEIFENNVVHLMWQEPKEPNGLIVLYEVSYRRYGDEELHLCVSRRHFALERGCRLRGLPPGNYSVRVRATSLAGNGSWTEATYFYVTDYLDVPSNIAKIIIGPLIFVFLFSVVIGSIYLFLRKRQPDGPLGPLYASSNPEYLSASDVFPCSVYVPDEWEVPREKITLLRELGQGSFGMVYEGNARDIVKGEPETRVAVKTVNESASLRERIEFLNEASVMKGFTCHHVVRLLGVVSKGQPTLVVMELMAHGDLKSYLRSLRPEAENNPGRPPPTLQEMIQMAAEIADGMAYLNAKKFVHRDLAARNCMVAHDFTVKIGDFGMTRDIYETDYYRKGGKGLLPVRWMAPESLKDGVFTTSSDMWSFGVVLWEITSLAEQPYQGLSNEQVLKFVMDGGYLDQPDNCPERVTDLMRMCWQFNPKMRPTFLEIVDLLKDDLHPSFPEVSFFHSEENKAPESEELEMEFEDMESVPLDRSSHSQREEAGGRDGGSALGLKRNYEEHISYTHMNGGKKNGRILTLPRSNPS

human IR = biological target: T4, human IR (Homo sapiens, UniProt P06213); assay: Insulin Receptor Phosphorylation (pAkt) Assay, CHO cells overexpressing human IR; assay type: cell-based; settings: Table 7, control molecules, read-out: Insulin Receptor pAK Assay EC50 Human
T4 construct: expressed in transfected cells; host or cells: CHO cells (G418 selection)
T4 sequence (P06213 28-758 limits assumed): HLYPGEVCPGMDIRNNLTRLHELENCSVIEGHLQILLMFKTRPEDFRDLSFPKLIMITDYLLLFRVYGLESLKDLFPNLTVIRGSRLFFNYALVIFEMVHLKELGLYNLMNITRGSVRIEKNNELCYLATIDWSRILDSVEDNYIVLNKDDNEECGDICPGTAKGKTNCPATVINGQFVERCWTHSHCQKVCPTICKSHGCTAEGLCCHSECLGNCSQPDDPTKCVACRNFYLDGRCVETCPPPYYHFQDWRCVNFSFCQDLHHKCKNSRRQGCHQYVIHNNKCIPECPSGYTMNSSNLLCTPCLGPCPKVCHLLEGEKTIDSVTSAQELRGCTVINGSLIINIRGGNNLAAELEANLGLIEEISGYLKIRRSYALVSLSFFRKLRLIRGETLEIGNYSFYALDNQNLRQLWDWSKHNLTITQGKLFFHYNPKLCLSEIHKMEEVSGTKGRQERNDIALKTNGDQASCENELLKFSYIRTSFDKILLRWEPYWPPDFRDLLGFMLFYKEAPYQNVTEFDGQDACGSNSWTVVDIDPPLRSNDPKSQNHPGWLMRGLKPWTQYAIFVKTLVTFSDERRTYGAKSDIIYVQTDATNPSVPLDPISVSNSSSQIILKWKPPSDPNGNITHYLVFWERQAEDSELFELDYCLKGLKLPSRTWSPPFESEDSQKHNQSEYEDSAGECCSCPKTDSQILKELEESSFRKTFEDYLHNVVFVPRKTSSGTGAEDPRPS
T4 sequence (P06213 763-1382 limits assumed): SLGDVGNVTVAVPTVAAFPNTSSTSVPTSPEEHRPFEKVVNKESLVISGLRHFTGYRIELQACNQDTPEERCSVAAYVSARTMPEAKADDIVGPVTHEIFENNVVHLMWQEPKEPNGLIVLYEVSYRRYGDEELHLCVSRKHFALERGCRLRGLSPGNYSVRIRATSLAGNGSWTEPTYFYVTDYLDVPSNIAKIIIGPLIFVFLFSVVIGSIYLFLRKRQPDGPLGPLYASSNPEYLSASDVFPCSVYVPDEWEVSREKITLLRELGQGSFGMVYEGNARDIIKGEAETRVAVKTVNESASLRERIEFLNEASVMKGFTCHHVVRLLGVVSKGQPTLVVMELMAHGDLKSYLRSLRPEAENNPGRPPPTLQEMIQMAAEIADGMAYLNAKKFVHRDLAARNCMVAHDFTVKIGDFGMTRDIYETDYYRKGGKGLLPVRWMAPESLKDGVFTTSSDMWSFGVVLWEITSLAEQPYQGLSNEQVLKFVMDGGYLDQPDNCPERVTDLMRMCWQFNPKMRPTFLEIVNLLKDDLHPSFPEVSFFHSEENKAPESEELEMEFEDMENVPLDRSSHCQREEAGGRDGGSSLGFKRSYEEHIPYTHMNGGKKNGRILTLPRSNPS

[1] = Table 5, incretin peptides, cAMP, read-out: hGCGR_EC50
[2] = Table 5, incretin peptides, cAMP, read-out: hGLP1R EC50

T1 sequence (F1SCL0 28-1382): as the sequence (F1SCL0 28-1382) above

| Molecule | pEC50 (human GCGR; [1]) | GCGR/GLP1R ratio (human GCGR) | pEC50 (human GLP1R; [2]) | pEC50 (human GCGR) | pEC50 (human GLP1R) | other results |
| --- | --- | --- | --- | --- | --- | --- |
| Insulin degludec [ID] | – | – | – | – | – | pEC50 (Insulin Receptor): 8.07 |
| CC(C)C[C@H](NC(=O)[C@H](Cc1c[nH]c2ccccc12)NC(=O)[C@H](CCC(N)=O)NC(=O)[C@@H](NC(=O)[C@H](Cc1ccccc1)NC(=O)[C@H](CC(=O)O)NC(=O)[C@H](CCC(N)=O)NC(=O)[C@H](C)NC(=O)[C@H](C)NC(=O)[C@H](CCCNC(=N)N)NC(=O)C(C)(C)NC(=O)[C@H](CC(=O)O)NC(=O)[C@H](CC(C)C)NC(=O)[C@H](Cc1ccc(O)cc1)NC(=O)[C@H](CCCCN)NC(=O)[C@H](CO)NC(=O)[C@H](Cc1ccc(O)cc1)NC(=O)[C@H](CC(=O)O)NC(=O)[C@H](CO)NC(=O)[C@@H](NC(=O)[C@H](Cc1ccccc1)NC(=O)[C@@H](NC(=O)CNC(=O)[C@H](CCC(N)=O)NC(=O)C(C)(C)NC(=O)[C@@H](N)Cc1c[nH]cn1)[C@@H](C)O)[C@@H](C)O)C(C)C)C(=O)N[C@@H](CC(C)C)C(=O)N[C@@H](CC(=O)O)C(=O)N[C@H](C(=O)N[C@@H](CCCCN)C(=O)N[C@@H](CCCCN=[N+]=[N-])C(N)=O)[C@@H](C)O [PEP18] | 9.68 | 6.7 | 10.52 | – | – | – |
| CSCC[C@H](NC(=O)[C@H](CC(C)C)NC(=O)[C@H](Cc1c[nH]c2ccccc12)NC(=O)[C@H](CCC(N)=O)NC(=O)[C@@H](NC(=O)[C@H](Cc1ccccc1)NC(=O)[C@H](CC(=O)O)NC(=O)[C@H](CCC(N)=O)NC(=O)[C@H](C)NC(=O)[C@H](C)NC(=O)[C@H](CCCNC(=N)N)NC(=O)C(C)(C)NC(=O)[C@H](CC(=O)O)NC(=O)[C@H](CC(C)C)NC(=O)[C@H](Cc1ccc(O)cc1)NC(=O)[C@H](CCCCN)NC(=O)[C@H](CO)NC(=O)[C@H](CCCCN)NC(=O)[C@H](CC(=O)O)NC(=O)[C@H](CO)NC(=O)[C@@H](NC(=O)[C@H](Cc1ccccc1)NC(=O)[C@@H](NC(=O)CNC(=O)[C@H](CCC(N)=O)NC(=O)C(C)(C)NC(=O)[C@@H](N)Cc1c[nH]cn1)[C@@H](C)O)[C@@H](C)O)C(C)C)C(=O)N[C@@H](CC(N)=O)C(=O)N[C@H](C(=O)N[C@@H](CCCCN)C(=O)N[C@@H](CCC(N)=O)C(=O)N[C@@H](CCCCN=[N+]=[N-])C(N)=O)[C@@H](C)O [PEP72] | 8.41 | 97.5 | 10.40 | – | – | – |
| Insulin levemir [IL] | – | – | – | – | – | pEC50 (minipig IR): 9.30; pEC50 (human IR): 9.29 |
| CCCCCCCCCCCCCCCC(=O)N[C@@H](CCC(=O)N[C@@H](CCC(=O)NCCCC[C@H](NC(=O)[C@H](CC(=O)O)NC(=O)[C@H](CO)NC(=O)[C@@H](NC(=O)[C@H](Cc1ccccc1)NC(=O)[C@@H](NC(=O)CNC(=O)[C@H](CCC(N)=O)NC(=O)C(C)(C)NC(=O)[C@@H](N)Cc1c[nH]cn1)[C@@H](C)O)[C@@H](C)O)C(=O)N[C@@H](CO)C(=O)N[C@@H](CCCCN)C(=O)N[C@@H](Cc1ccc(O)cc1)C(=O)N[C@@H](CC(C)C)C(=O)N[C@@H](CC(=O)O)C(=O)N[C@@H](CCC(=O)O)C(=O)N[C@@H](CCCNC(=N)N)C(=O)N[C@@H](C)C(=O)N[C@@H](C)C(=O)N[C@@H](CCC(N)=O)C(=O)N[C@@H](CC(=O)O)C(=O)N[C@@H](Cc1ccccc1)C(=O)N[C@H](C(=O)N[C@@H](CCCCN=[N+]=[N-])C(=O)N[C@@H](Cc1c[nH]c2ccccc12)C(=O)N[C@@H](CC(C)C)C(=O)N[C@@H](CC(C)C)C(=O)N[C@@H](CC(=O)O)C(=O)NCC(=O)N[C@@H](CCCNC(=N)N)C(=O)NCC(N)=O)C(C)C)C(=O)O)C(=O)O [PEP2] | – | 3.7 | – | 9.96 | 10.52 | – |
| CC(C)C[C@H](NC(=O)[C@H](Cc1ccc(O)cc1)NC(=O)[C@H](CCCCN)NC(=O)[C@H](CO)NC(=O)[C@H](CCCCN)NC(=O)[C@H](CC(=O)O)NC(=O)[C@H](CO)NC(=O)[C@@H](NC(=O)[C@H](Cc1ccccc1)NC(=O)[C@@H](NC(=O)CNC(=O)[C@H](CCC(N)=O)NC(=O)[C@@H](CO)NC(=O)[C@@H](N)Cc1c[nH]cn1)[C@@H](C)O)[C@@H](C)O)C(=O)N[C@@H](CC(=O)O)C(=O)N[C@@H](CCC(=O)O)C(=O)N[C@@H](CCCNC(=N)N)C(=O)N[C@@H](C)C(=O)N[C@@H](C)C(=O)N[C@@H](CCC(N)=O)C(=O)N[C@@H](CC(=O)O)C(=O)N[C@@H](Cc1ccccc1)C(=O)N[C@H](C(=O)N[C@@H](CCCCN=[N+]=[N-])C(=O)N[C@@H](Cc1c[nH]c2ccccc12)C(=O)N[C@@H](CC(C)C)C(=O)N[C@@H](CC(C)C)C(=O)N[C@@H](CC(=O)O)C(=O)N[C@H](C(N)=O)[C@@H](C)O)C(C)C [PEP69] | – | 1.9 | – | 9.51 | 9.80 | – |
| CCCCCCCCCCCCCCCC(=O)N[C@@H](CCC(=O)N[C@@H](CCC(=O)NCCCC[C@H](NC(=O)[C@H](CC(=O)O)NC(=O)[C@H](CO)NC(=O)[C@@H](NC(=O)[C@H](Cc1ccccc1)NC(=O)[C@@H](NC(=O)CNC(=O)[C@H](CCC(N)=O)NC(=O)[C@@H](CO)NC(=O)[C@@H](N)Cc1c[nH]cn1)[C@@H](C)O)[C@@H](C)O)C(=O)N[C@@H](CO)C(=O)N[C@@H](CCCCN)C(=O)N[C@@H](Cc1ccc(O)cc1)C(=O)N[C@@H](CC(C)C)C(=O)N[C@@H](CC(=O)O)C(=O)N[C@@H](CCC(=O)O)C(=O)N[C@@H](CCCNC(=N)N)C(=O)N[C@@H](C)C(=O)N[C@@H](C)C(=O)N[C@@H](CCC(N)=O)C(=O)N[C@@H](CC(=O)O)C(=O)N[C@@H](Cc1ccccc1)C(=O)N[C@H](C(=O)N[C@@H](CCCCN=[N+]=[N-])C(=O)N[C@@H](Cc1c[nH]c2ccccc12)C(=O)N[C@@](C)(CC(C)C)C(=O)N[C@@H](CCS(C)(=O)=O)C(=O)N[C@@H](CC(=O)O)C(=O)N[C@H](C(N)=O)[C@@H](C)O)C(C)C)C(=O)O)C(=O)O [PEP37] | 10.22 | 1.5 | 10.40 | – | – | – |
| CCCCCCCCCCCCCCCC(=O)N[C@@H](CCC(=O)N[C@@H](CCC(=O)NCCCC[C@H](NC(=O)[C@H](CC(=O)O)NC(=O)[C@H](CO)NC(=O)[C@@H](NC(=O)[C@H](Cc1ccccc1)NC(=O)[C@@H](NC(=O)CNC(=O)[C@H](CCC(N)=O)NC(=O)C(C)(C)NC(=O)[C@@H](N)Cc1c[nH]cn1)[C@@H](C)O)[C@@H](C)O)C(=O)N[C@@H](CO)C(=O)N[C@@H](CCCCN)C(=O)N[C@@H](Cc1ccc(O)cc1)C(=O)N[C@@H](CC(C)C)C(=O)N[C@@H](CC(=O)O)C(=O)NC(C)(C)C(=O)N[C@@H](CCCNC(=N)N)C(=O)N[C@@H](CCCNC(=N)N)C(=O)N[C@@H](C)C(=O)N[C@@H](CCC(N)=O)C(=O)N[C@@H](CC(=O)O)C(=O)N[C@@H](Cc1ccccc1)C(=O)N[C@H](C(=O)N[C@@H](CCC(N)=O)C(=O)N[C@@H](Cc1c[nH]c2ccccc12)C(=O)N[C@@H](CC(C)C)C(=O)N[C@@H](CC(C)C)C(=O)N[C@@H](CC(=O)O)C(=O)N[C@H](C(=O)N[C@@H](CCCCN=[N+]=[N-])C(=O)N[C@@H](CCC(N)=O)C(=O)O)[C@@H](C)O)C(C)C)C(=O)O)C(=O)O [PEP6] | – | – | – | 10.15 | 9.77 | – |
| CCCCCCCCCCCCCCCC(=O)N[C@@H](CCC(=O)N[C@@H](CCC(=O)NCCCC[C@H](NC(=O)[C@H](CC(=O)O)NC(=O)[C@H](CO)NC(=O)[C@@H](NC(=O)[C@H](Cc1ccccc1)NC(=O)[C@@H](NC(=O)CNC(=O)[C@H](CCC(N)=O)NC(=O)[C@@H](CO)NC(=O)[C@@H](N)Cc1c[nH]cn1)[C@@H](C)O)[C@@H](C)O)C(=O)N[C@@H](CO)C(=O)N[C@@H](CCCCN)C(=O)N[C@@H](Cc1ccc(O)cc1)C(=O)N[C@@H](CC(C)C)C(=O)N[C@@H](CC(=O)O)C(=O)N[C@@H](CCC(=O)O)C(=O)N[C@@H](CCCNC(=N)N)C(=O)N[C@@H](C)C(=O)N[C@@H](C)C(=O)N[C@@H](CCC(N)=O)C(=O)N[C@@H](CC(=O)O)C(=O)N[C@@H](Cc1ccccc1)C(=O)N[C@H](C(=O)N[C@@H](CCCCNC(=O)COCCOCCNC(=O)CCCCN=[N+]=[N-])C(=O)N[C@@H](Cc1c[nH]c2ccccc12)C(=O)N[C@@H](CC(C)C)C(=O)N[C@@H](CC(C)C)C(=O)N[C@@H](CC(=O)O)C(=O)N[C@H](C(N)=O)[C@@H](C)O)C(C)C)C(=O)O)C(=O)O [PEP14] | – | 0.8 | – | 10.30 | 10.15 | – |

Source: US20190175744A1, “INSULIN-INCRETIN CONJUGATES” (Merck Sharp & Dohme Corp., priority 2016, published 2019)
